Laboratory results from ChEMBL document CHEMBL5137085, “GNE-064: A Potent, Selective, and Orally Bioavailable Chemical Probe for the Bromodomains of SMARCA2 and SMARCA4 and the Fifth Bromodomain of PBRM1” (J Med Chem, 2022).
In brackets after ≈: the same amount, converted by molar mass. Values belong to the compound of their own block, whether it stands above or below them.

Columns and labels:
[1] = Lipophilicity, LogD of compound; format: physicochemical; conditions: octanol/water
[2] = target: Bromodomain-containing protein 4 (Homo sapiens, UniProt O60885); assay: Inhibition of BRD4 bromodomain 1 (unknown origin) by TR-FRET assay
[3] = Kinetic solubility of compound; format: physicochemical; conditions: read-out: Kinetic_solubility
[4] = target: T1, Protein polybromo-1 (Homo sapiens, UniProt Q86U86); assay: Binding affinity to human PBRM1 bromodomain 5 (S645 to D766 residues) expressed in bacterial expression system by bromoscan assay
T1 sequence (Q86U86 whole entry, the tested form may be a part): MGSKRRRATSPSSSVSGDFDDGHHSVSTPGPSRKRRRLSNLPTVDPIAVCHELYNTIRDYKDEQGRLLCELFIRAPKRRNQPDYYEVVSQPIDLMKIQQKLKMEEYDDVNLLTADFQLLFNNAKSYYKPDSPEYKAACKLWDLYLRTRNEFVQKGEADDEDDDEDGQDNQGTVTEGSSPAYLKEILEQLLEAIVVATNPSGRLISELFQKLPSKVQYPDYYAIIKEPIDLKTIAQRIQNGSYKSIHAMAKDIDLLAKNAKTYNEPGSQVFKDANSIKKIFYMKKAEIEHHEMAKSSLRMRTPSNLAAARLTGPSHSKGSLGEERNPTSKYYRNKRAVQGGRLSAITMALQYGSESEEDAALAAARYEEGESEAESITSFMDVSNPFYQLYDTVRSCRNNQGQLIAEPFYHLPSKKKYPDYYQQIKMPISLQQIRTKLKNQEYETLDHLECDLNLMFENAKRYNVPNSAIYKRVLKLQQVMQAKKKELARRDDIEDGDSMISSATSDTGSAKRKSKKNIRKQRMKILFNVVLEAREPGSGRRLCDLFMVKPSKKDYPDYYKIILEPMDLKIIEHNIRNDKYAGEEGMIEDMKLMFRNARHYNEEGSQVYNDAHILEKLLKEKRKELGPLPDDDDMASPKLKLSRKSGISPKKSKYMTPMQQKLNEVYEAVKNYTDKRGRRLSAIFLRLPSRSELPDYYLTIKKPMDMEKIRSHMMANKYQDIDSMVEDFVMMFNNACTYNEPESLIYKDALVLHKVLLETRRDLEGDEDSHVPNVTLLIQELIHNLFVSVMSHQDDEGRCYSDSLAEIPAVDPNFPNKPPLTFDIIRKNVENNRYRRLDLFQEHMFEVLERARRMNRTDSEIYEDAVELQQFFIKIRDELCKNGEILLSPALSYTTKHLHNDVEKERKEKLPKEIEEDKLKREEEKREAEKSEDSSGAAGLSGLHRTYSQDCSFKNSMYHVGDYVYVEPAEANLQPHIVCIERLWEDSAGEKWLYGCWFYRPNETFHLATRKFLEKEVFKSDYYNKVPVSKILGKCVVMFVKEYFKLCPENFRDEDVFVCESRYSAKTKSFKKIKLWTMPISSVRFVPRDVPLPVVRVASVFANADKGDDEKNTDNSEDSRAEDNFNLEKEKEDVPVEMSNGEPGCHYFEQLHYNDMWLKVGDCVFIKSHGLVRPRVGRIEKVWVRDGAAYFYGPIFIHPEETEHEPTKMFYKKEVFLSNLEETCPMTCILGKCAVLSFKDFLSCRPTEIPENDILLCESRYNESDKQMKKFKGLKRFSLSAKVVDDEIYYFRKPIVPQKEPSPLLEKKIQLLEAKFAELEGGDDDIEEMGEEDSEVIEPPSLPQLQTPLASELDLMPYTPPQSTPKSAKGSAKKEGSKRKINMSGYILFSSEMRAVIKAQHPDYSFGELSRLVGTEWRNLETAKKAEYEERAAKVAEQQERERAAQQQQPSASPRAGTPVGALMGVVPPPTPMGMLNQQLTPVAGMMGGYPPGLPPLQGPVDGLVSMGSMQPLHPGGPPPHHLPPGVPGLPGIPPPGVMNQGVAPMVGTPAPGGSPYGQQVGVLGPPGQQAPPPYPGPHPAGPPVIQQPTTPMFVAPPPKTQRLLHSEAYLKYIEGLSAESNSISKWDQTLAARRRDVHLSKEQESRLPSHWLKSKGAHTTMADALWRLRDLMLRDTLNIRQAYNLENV

[5] = target: T2, SWI/SNF-related matrix-associated actin-dependent regulator of chromatin subfamily A member 4 (Homo sapiens, UniProt P51532); assay: Binding affinity to His6/FLAG-tagged SMARCA4 (unknown origin) by isothermal titration calorimetric assay
T2 sequence (P51532 whole entry): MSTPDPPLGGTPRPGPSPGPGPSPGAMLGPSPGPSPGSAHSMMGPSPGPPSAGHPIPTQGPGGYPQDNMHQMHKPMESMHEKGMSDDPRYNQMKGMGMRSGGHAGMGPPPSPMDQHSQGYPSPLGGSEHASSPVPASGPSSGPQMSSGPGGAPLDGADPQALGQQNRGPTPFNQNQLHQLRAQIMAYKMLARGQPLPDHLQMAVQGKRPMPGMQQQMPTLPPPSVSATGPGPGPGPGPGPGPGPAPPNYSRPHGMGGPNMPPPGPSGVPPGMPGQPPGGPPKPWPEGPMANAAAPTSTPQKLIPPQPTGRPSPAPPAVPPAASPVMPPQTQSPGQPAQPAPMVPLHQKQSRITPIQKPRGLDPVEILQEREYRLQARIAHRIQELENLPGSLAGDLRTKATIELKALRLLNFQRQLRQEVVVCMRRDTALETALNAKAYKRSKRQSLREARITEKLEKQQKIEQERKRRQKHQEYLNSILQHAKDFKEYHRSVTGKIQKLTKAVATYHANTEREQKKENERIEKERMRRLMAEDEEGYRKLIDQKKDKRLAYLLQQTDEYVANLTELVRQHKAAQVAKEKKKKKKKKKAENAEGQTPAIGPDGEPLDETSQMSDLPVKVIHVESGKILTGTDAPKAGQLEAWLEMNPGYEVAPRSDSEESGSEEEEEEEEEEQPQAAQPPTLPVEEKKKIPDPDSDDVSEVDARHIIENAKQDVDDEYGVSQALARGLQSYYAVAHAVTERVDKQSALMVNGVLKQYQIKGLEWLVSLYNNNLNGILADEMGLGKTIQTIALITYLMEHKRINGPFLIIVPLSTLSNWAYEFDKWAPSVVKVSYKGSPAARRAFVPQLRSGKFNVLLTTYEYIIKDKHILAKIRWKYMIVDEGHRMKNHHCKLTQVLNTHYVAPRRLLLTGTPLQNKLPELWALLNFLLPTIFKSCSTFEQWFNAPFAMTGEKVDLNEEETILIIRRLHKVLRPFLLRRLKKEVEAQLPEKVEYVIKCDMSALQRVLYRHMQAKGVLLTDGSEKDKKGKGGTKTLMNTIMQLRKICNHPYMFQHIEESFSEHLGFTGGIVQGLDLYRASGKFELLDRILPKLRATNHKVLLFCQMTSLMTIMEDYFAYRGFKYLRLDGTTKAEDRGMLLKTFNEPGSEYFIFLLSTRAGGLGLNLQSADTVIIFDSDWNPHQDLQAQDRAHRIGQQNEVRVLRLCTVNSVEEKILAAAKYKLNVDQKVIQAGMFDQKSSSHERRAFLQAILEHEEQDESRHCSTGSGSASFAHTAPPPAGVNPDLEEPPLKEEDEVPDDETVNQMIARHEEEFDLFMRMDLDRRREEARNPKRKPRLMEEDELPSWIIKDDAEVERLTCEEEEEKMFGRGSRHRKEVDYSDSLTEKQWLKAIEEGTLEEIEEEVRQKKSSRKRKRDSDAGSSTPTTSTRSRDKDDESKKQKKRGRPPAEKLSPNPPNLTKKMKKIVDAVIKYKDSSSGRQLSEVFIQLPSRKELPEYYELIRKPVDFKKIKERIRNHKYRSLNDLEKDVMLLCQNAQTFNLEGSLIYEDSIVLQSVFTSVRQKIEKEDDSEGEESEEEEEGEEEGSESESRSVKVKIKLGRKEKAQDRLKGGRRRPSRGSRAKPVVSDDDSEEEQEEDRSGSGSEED

[6] = target: T2, SWI/SNF-related matrix-associated actin-dependent regulator of chromatin subfamily A member 4
[7] = target: T3, SWI/SNF-related matrix-associated actin-dependent regulator of chromatin subfamily A member 2 (Homo sapiens, UniProt P51531); assay: Inhibition of SMARCA2 (unknown origin) by TR-FRET assay
T3 sequence (P51531 whole entry, the tested form may be a part): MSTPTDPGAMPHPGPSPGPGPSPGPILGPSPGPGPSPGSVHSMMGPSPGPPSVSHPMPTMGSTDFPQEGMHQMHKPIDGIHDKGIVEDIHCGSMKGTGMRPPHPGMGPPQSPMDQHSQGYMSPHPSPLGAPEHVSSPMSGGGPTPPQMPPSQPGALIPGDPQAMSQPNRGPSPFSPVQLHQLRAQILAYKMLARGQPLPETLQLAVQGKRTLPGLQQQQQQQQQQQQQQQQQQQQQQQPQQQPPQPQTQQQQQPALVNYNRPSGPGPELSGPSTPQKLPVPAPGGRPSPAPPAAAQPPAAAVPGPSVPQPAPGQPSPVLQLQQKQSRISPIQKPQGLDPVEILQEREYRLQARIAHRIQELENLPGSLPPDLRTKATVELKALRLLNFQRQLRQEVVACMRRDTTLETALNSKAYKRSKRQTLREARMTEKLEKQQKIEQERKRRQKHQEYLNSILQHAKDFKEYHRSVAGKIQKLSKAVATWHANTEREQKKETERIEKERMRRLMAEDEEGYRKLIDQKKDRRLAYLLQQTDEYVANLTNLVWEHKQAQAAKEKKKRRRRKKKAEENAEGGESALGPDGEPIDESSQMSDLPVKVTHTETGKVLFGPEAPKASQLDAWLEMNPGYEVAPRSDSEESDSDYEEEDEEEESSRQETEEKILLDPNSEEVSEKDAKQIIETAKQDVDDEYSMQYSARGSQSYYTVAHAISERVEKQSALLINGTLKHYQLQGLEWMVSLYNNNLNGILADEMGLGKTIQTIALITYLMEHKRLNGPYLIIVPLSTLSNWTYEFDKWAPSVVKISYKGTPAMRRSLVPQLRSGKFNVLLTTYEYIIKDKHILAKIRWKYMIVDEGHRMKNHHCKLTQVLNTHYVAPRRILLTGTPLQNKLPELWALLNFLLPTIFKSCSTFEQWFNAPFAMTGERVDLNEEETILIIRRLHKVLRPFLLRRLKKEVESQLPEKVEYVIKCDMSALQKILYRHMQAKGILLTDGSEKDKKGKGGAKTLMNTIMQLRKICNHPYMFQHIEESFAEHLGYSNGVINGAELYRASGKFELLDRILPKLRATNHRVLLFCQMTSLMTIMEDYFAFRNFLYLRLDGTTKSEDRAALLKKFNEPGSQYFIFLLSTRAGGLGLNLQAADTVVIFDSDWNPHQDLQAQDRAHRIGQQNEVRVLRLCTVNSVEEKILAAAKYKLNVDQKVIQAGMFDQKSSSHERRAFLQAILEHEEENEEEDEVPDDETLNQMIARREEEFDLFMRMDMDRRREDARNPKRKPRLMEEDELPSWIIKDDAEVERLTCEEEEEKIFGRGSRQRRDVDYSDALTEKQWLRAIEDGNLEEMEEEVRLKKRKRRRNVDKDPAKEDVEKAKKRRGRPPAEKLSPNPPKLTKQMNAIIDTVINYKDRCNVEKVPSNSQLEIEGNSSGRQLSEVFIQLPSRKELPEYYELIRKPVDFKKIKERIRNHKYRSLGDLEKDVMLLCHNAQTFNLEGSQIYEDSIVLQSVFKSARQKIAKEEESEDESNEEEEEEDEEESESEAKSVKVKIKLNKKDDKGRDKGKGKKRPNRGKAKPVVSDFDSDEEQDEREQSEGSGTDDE

[8] = target: T3, SWI/SNF-related matrix-associated actin-dependent regulator of chromatin subfamily A member 2; assay: Binding affinity to human SMARCA2 (S1337 to Q1486 residues) expressed in bacterial expression system by bromoscan assay
[9] = target: T1, Protein polybromo-1; assay: Binding affinity to human PBRM1 bromodomain 2 (S178 to E291 residues) expressed in bacterial expression system by bromoscan assay
[10] = target: T2, SWI/SNF-related matrix-associated actin-dependent regulator of chromatin subfamily A member 4; assay: Binding affinity to human SMARCA4 (A1448 to S1575 residues) expressed in bacterial expression system by bromoscan assay
[11] = target: T1, Protein polybromo-1; assay: Inhibition of PBRM1 bromodomain 5 (unknown origin) by TR-FRET assay
[12] = Oral bioavailability in CD-1 mouse at 1 mg/kg; format: ADME, organism-based; conditions: in vivo
[13] = Protein binding in rat plasma; format: ADME, cell-free; conditions: read-out: PPB (converted)
[14] = Tmax in CD-1 mouse at 1 mg/kg, po; format: ADME, organism-based; conditions: in vivo
[15] = Cmax in CD-1 mouse at 1 mg/kg, po; format: ADME, organism-based; design: dose 1 mg/kg, route po; conditions: in vivo
[16] = target: Cytochrome P450 2D6 (Homo sapiens, UniProt P10635); assay: Inhibition of CYP2D6 (unknown origin); format: ADME
[17] = target: Cytochrome P450 3A4 (Homo sapiens, UniProt P08684); assay: Inhibition of CYP3A4 (unknown origin); format: ADME
[18] = Fraction unbound in CD-1 mouse at 1 mg/kg, po; format: ADME, organism-based; conditions: in vivo
[19] = target: T4, Cytochrome P450 1A2 (Homo sapiens, UniProt P05177); assay: Inhibition of CYP1A2 (unknown origin); format: ADME
T4 sequence (P05177 whole entry): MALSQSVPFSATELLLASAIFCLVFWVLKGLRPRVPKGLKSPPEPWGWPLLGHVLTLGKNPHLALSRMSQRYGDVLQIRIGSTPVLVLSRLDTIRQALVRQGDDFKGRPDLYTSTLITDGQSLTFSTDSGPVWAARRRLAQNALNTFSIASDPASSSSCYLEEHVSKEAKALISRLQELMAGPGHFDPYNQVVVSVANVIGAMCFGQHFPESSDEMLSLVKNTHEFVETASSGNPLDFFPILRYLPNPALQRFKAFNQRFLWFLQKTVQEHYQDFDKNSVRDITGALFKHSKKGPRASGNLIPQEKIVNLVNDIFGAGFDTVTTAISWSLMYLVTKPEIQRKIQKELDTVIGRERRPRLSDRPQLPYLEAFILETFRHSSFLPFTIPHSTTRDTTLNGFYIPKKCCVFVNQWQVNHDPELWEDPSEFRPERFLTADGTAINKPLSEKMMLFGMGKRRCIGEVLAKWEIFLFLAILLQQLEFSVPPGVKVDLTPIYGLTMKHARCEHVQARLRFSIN

[20] = target: Cytochrome P450 2C19 (Homo sapiens, UniProt P33261); assay: Inhibition of CYP2C19 (unknown origin); format: ADME
[21] = Protein binding in human plasma; format: ADME, cell-free; conditions: read-out: PPB (converted)
[22] = Protein binding in mouse plasma; format: ADME, cell-free; conditions: read-out: PPB (converted)
[23] = Volume of distribution at steady state in CD-1 mouse at 0.5 mg/kg, iv; format: ADME, organism-based; conditions: in vivo, read-out: Vdss
[24] = Unbound volume of distribution at steady state in CD-1 mouse at 0.5 mg/kg, iv; format: ADME, organism-based; conditions: in vivo
[25] = Clearance in CD-1 mouse at 0.5 mg/kg, iv; format: ADME, organism-based; conditions: in vivo
[26] = Half life in CD-1 mouse at 0.5 mg/kg, iv; format: ADME, organism-based; conditions: in vivo
[27] = target: Cytochrome P450 2C9 (Homo sapiens, UniProt P11712); assay: Inhibition of CYP2C9 (unknown origin); format: ADME
[28] = target: T5, Cytochrome P450 2C8 (Homo sapiens, UniProt P10632); assay: Inhibition of CYP2C8 (unknown origin); format: ADME
T5 sequence (P10632 whole entry): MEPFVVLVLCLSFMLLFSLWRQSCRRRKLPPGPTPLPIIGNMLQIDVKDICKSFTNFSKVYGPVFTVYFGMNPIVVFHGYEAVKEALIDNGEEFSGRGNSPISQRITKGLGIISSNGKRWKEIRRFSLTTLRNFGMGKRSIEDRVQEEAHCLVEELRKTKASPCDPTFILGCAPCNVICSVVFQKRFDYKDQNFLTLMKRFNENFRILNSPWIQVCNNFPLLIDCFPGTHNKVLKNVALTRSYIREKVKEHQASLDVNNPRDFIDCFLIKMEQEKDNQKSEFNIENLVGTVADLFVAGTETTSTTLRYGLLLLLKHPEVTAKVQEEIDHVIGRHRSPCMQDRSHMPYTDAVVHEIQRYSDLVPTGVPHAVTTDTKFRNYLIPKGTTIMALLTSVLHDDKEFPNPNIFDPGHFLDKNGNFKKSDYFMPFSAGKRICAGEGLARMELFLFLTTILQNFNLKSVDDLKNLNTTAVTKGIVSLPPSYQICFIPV

[29] = Unbound clearance in CD-1 mouse at 0.5 mg/kg, iv; format: ADME, organism-based; conditions: in vivo

- logD [1]: 3.3
- IC50 [2]: 27 µM
- solubility kinetic [3]: 11 µM (≈ 2.9 µg/mL)
SMILES: Nc1nnc(-c2ccccc2O)cc1-c1ccccc1

- Kd [4]: 0.58 µM
- Kd [5]: 3.5 µM
- IC50 [6]: 5.3 µM
- IC50 [2]: > 100 µM
- IC50 [7]: 4.3 µM
- Kd [8]: 0.34 µM
- Kd [9]: 0.17 µM
- Kd [10]: 0.51 µM
- IC50 [11]: 3.1 µM
SMILES: Nc1nnc2c([nH]c3ccccc32)c1-c1ccccc1

- Kd [4]: 27 µM
- IC50 [6]: 57.1 µM
- IC50 [2]: > 100 µM
- Kd [8]: 4.4 µM
- Kd [9]: 5.7 µM
- Kd [10]: 10 µM
SMILES: Nc1nnc(-c2ccccc2)cc1-c1ccccc1

- logD [1]: 2
- bioavailability [12]: 59%
- fraction unbound [13]: 0.41
- Tmax [14]: 30 min
- Cmax [15]: 1000 nM
- IC50 [16]: > 10 µM
- IC50 [17]: > 10 µM
- fraction unbound [18]: 0.31
- IC50 [19]: > 10 µM
- IC50 [20]: > 10 µM
- fraction unbound [21]: 0.24
- IC50 [2]: 34 µM
- fraction unbound [22]: 0.31
- Vd [23]: 1 L/kg
- Vduss [24]: 3.2 L/kg
- clearance [25]: 16 mL/min/kg
- half-life [26]: 66 min
- IC50 [27]: > 10 µM
- IC50 [28]: > 10 µM
- CL free [29]: 52 mL/min/kg
- solubility kinetic [3]: 120 µM (≈ 39.3 µg/mL)
SMILES: CC(=O)N1CCN(c2cc(-c3ccccc3O)nnc2N)C[C@H]1C
